Entries after “also recorded” stand apart in the source; their conditions may differ.
Columns and labels:
[1] = tested on: IL1b, IL6 and IL17; test: TBI-induced changes in brain cytokines; type: in vivo, mice; conditions: CAP i.p. 30 minutes after TBI, brains harvested 24 hours after TBI; not significant, under-powered
Experimental: FIG. 10. TBI-induced changes in brain cytokines. TBI induced increase in brain IL1b, IL6 and IL17 are reversed by CAP. Cap was administered i.p. 30 minutes after TBI and brains were harvested 24 hours after TBI.
In a separate study, preeclampsia was induced in pregnant mice by injection of either the toll-like receptor 3 (TLR3) agonist, PolyI:C, or with the toll-like receptor 8 ([…]) agonist R837. […] It is pertinent to note that this power issue has been corrected.

[2] = tested on: splenic B cells; test: CFA-sensitized mice treated with Peptide with or without MLA, FACS of splenic B cells; type: in vivo
Experimental: (§1) SUMMARY: A study was conducted to evaluate a potential alpha7 nAChR anti-inflammatory mechanism of the MKR-4 peptide, using the alpha7 nAChR antagonist methyllycaconitine (MLA). After enrollment, animals in Groups 2-4 were sensitized ID at the base of the tail with 0.1 mL FCA on Day 1. On Days 2, 3, 5 & 7 Groups were then dosed intraperitoneally (IP) with either: peptide and MLA in combination (2 mg/kg and 6 mg/kg, respectively); peptide (2 mg/kg) and MLA vehicle (saline) in combination; or peptide vehicle (saline) and MLA vehicle (saline). Animals were dosed once on Study Day 2 (MLA or MLA vehicle), and Days 3, 5 & 7 (Peptide or Peptide vehicle, MLA or MLA vehicle) as described in Table 2 below. Body weights were recorded on Study Days 0 & 8. Mice were euthanized for necropsy on Study Day 8, and serum and whole spleens were collected from all animals and sent to the sponsor for internal FACS analysis. Toxicity and Peptide mechanistic evaluation was based on absolute body weight change, spleen weights and sponsor FACS analysis (not included in report).
Antibodies and Flow Cytometry. Single cell suspensions were made of tissues or cells harvested from culture and stained with the following monoclonal antibodies: a monoclonal antibody directed against mouse alpha 7 nicotinic acetylcholine receptor (alpha 7 nAChR) (Santa Cruz Biotechnology); anti-mouse MHC Class II (M5114), and anti-mouse CLIP 15G4, Santa Cruz. Following staining, cells were analyzed comparing each level of staining to the appropriate isotype control on a Beckman Coulter Cytoflex benchtop flow cytometer. Data was analyzed using FlowJo software (Tree Star Inc.).
Experimental Design: On Study Day 0, mice were weighed and randomized by body weight into treatment groups. Following randomization, on Study Day 1, Groups 2-4 were sensitized ID at the base of the tail with 0.1 mL of FCA. When MLA and Peptide (FRIMAVLAS (SEQ ID NO: 389))—or their vehicles—were dosed on the same day, the MLA antagonist or vehicle was dosed 1 hour before the Peptide or its vehicle.
On Study Day 8, mice were anesthetized with Isoflurane (VetOne, Cat #502017) and bled to exsanguination followed by cervical dislocation for necropsy and tissue collection.

[3] = tested on: peripheral pro-inflammatory cells; test: TBI (fluid percussion injury), peripheral pro-inflammatory cells; type: in vivo; conditions: TBI / FPI
Excerpt: FIG. 17. CAP reduces peripheral pro-inflammatory cells. TBI is traumatic brain injury. FPI is fluid percussion injury.

[4] = Toxicity evaluation in CFA/Peptide/MLA study (survival, body weight change, spleen weight); type: in vivo, mice
Experimental: as §1, with “report). […]” for “report).”
Statistical Analysis: Data for each animal were entered into Microsoft Excel and means and standard errors for each group were calculated. Test groups were compared to vehicle controls using a one-way analysis of variance (1-way ANOVA) with a Dunnett's post-hoc analysis for measured (parametric) data. […]

[5] = LPS model of sepsis, autoregulation of arterial pressure / afferent arteriolar autoregulatory behavior; type: in vivo; conditions: LPS treated rats, CAP treatment
Experimental: FIGS. 16A-16B. Treatment with CAP restores afferent arteriolar autoregulatory behavior in chronic LPS (0.1 mg/kg/day) treated kidneys. Each data point represents the mean±SE. * P<0.05 vs. control diameter in the same group. ‡ P<0.05 vs. control for the same perfusion pressure. # P<0.05 vs. CAP for the same perfusion pressure.
Sepsis is a potentially life-threatening condition, is caused by excessive inflammation resulting from the body trying to fend off infection. […] LPS treatment (0.84 mg/kg) of rats is used as a model of sepsis and results in loss of arterial pressure that is inflammatory and mimics loss of autoregulation in sepsis. We discovered that autoregulation of arterial pressure can be restored with CAP treatment (FIG. 16), further supporting its use to treat infectious disease associated with sepsis.

[6] = Dosing formulation storage and stability; type: physicochemical; conditions: 5 mg/mL DMSO stock
Experimental: Test Article Formulation Instructions & Calculations: Peptide dosing solution (0.2 mg/mL) was made fresh daily within 1 hour of use by diluting 0.09 mL of 5 mg/mL DMSO stock into 2.11 mL sterile saline. DMSO stock was kept at 4 C, then refrozen (to avoid repeated freeze-thaw cycles). Still, stock was relatively “solid” even at 4 C.
MLA antagonist dosing solution (0.6 mg/mL) was made on Day 2 by diluting the entire 5 mg in the sealed vial with 8.3 mL of sterile saline and aliquoting out ˜1.1 mL in each of seven 2 mL cryovials and freezing at −20 C. Four vials were used in the experiment, each thawed within 1 hour of use. Three vials remain frozen.
Dosing Formulations and Vehicle Storage & Stability: Saline vehicle is stable at 4 C for months. Peptide dosing solutions were made up and used fresh daily. […] MLA frozen “stock” solutions were stable for up to 1 month.

**Q.** What does the source list for FRIMAVLAS [CAP, α7nAChR agonist]?
**A.** brain IL1b, IL6 and IL17 [1]: trend toward a reduction; also recorded: reversed; percentage of splenic B cells ([2]; CFA treated and Peptide treated (2 mg/kg IP), vehicle 49.8%, CFA 50.1%): 34.4%; number of CLIP+ B cells ([2]; CFA treated mice, Peptide 2 mg/kg IP): reduction; peripheral pro-inflammatory cells [3]: reduces; survival to study termination ([4]; Peptide 2 mg/kg IP Days 3, 5, 7, with or without MLA): All mice survived; group body weight change differences and spleen weight differences ([4]; Peptide 2 mg/kg IP, with or without MLA 6 mg/kg, CFA mice): none of the group body weight change differences or spleen weight differences were significant; autoregulation of arterial pressure (afferent arteriolar autoregulatory behavior) [5]: restores; stability of DMSO stock [6]: stable for a few months

From patent US20230226135A9, “ACETYLCHOLINE MODULATION OF IMMUNE FUNCTION” (BCell Solutions, Inc., priority 2019, published 2023)
